Reference: ChEMBL document CHEMBL1129058, “Indole inhibitors of human nonpancreatic secretory phospholipase A2. 2. Indole-3-acetamides with additional functionality” (J Med Chem, 1996)
“And” between values parts separate entries of the source, which are not always exact repeats. Identical values can stand only once.

Experiments:
Cavia porcellus = organism: Cavia porcellus; assay: Effective dose of compound against contraction of Guinea pig lung tissue with arachidonic acid.; format: functional
[1] = target: T1, Phospholipase A2, membrane associated (Homo sapiens) (UniProt P14555); assay: Inhibitory activity against contraction of Guinea pig lung tissue induced by PLA2.; format: functional, tissue-based; details: Cavia porcellus, target entry is the homologue from another species
T1 sequence (whole entry): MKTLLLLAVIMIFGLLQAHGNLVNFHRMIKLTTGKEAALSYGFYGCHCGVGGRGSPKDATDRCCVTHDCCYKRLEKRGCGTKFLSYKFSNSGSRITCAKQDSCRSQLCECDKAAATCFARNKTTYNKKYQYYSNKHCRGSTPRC

[2] = target: T2, Phospholipase A2, membrane associated (Homo sapiens, UniProt P14555); assay: Inhibition of human non-pancreatic secretory phospholipase A2 (PLA2) in a chromogenic assay
T2 sequence (P14555 whole entry): T1 sequence (whole entry)

Row | SMILES | ED50 (Cavia porcellus) | Kb [1] | IC50 [2]
1 | CCc1c(CC(N)=O)c2cc(OCCCP(=O)(O)OC)ccc2n1Cc1ccccc1 | >10 µM | 0.34 µM | 0.04 µM
2 | CCCc1c(CC(N)=O)c2cc(O)ccc2n1Cc1ccccc1 | – | – | 34 µM
3 | Cc1c(CC(N)=O)c2cc(OCC(=O)O)ccc2n1Cc1ccccc1 | >30 µM | 8.22 µM | 1.79 µM
4 | CCc1c(CC(N)=O)c2c(OCC(=O)O)cccc2n1Cc1ccccc1 | >3 µM | – | –
5 | Cc1c(CC(N)=O)c2cc(CCCC(=O)O)ccc2n1Cc1ccccc1 | – | 0.332 µM | 0.155 µM
6 | CCc1c(CC(N)=O)c2cc(OCCCC(=O)O)c(C)cc2n1Cc1ccccc1 | – | 0.206 µM | 0.033 µM
7 | CCc1c(CC(N)=O)c2cc(SCCCC(=O)O)ccc2n1Cc1ccccc1 | – | 0.124 µM | 0.023 µM
8 | Cc1c(CC(N)=O)c2c(OCC(=O)O)cccc2n1Cc1ccccc1 | >10 µM | – | –
9 | CCc1c(CC(N)=O)c2cc(OCCCP(=O)(O)O)ccc2n1Cc1ccccc1 | >10 µM | – | –
10 | NC(=O)Cc1cn(Cc2ccccc2)c2ccc(OCP(=O)(O)O)cc12 | – | – | 3.68 µM
11 | C=CCc1c(O)ccc2c1c(CC(N)=O)c(CC)n2Cc1ccccc1 | – | – | 0.143 µM
12 | Cc1c(CC(N)=O)c2cc(Oc3cccc(C(=O)O)c3)ccc2n1Cc1ccccc1 | – | – | > 110 µM
13 | NC(=O)Cc1c(Br)n(Cc2ccccc2)c2cc(Cl)c(O)cc12 | – | – | 0.085 µM
14 | Cc1c(CC(N)=O)c2c(OCC(=O)O)cccc2n1Cc1ccccc1-c1ccccc1 | – | 0.14 µM | –
15 | NC(=O)Cc1cn(Cc2ccccc2)c2ccc(OCCCC(=O)O)cc12 | – | – | 0.18 µM
16 | Cc1c(CC(N)=O)c2cc(O)ccc2n1Cc1ccccc1 | – | – | 1.02 µM
17 | CSc1c(CC(N)=O)c2cc(OCCCC(=O)O)ccc2n1Cc1ccccc1 | >10 µM | 0.63 µM | 0.162 µM
18 | CCc1c(CC(N)=O)c2cc(OCCCP(=O)(OC)OC)ccc2n1Cc1ccccc1 | – | – | 0.266 µM
19 | CCOC(=O)CCCCOc1ccc2c(CC(N)=O)c(C)n(Cc3ccccc3)c2c1 | >30 µM | 22.5 µM | 0.306 µM
20 | CCc1c(CC(N)=O)c2cc(OCc3ccccc3C(=O)O)ccc2n1Cc1ccccc1 | – | – | 0.555 µM
21 | Cc1c(CC(N)=O)c2cc(OCCCCC(=O)O)ccc2n1Cc1ccccc1 | >30 µM | 8.8 µM | 1.15 µM
22 | CCc1c(CC(N)=O)c2cc(SCCCC(=O)O)c(C)cc2n1Cc1ccccc1 | – | – | 0.022 µM

Row | SMILES | ED50 (Cavia porcellus) | Kb [1] | IC50 [2]
23 | NC(=O)Cc1c(Br)n(Cc2ccccc2)c2ccc(OCCCC(=O)O)cc12 | >10 µM | 0.53 µM | 0.073 µM
24 | CCc1c(CC(N)=O)c2cc(SCCC(=O)O)ccc2n1Cc1ccccc1 | – | – | 0.059 µM
25 | Cc1c(CC(N)=O)c2cc(NCCCC(=O)O)ccc2n1Cc1ccccc1 | – | – | 1.83 µM
26 | Cc1c(CC(N)=O)c2cc(OCCCP(=O)(O)O)ccc2n1Cc1ccccc1-c1ccccc1 | >10 µM | – | –
27 | Cc1cc(SCCCC(=O)O)cc2c(CC(N)=O)c(C)n(Cc3ccccc3)c12 | – | – | 0.051 µM
28 | Cc1c(CC(N)=O)c2ccc(OCCCC(=O)NN)cc2n1Cc1ccccc1 | – | – | 1.27 µM
29 | CCc1c(CC(N)=O)c2cc(SCCCC(=O)O)c(C(C)C)cc2n1Cc1ccccc1 | – | – | 0.033 µM
30 | Cc1c(CC(=O)O)c2cc(OCCCC(=O)O)ccc2n1Cc1ccccc1 | – | – | 25.9 µM
31 | NC(=O)Cc1c(Cl)n(Cc2ccccc2)c2ccc(OCCCC(=O)O)cc12 | >30 µM | 0.61 µM | 0.077 µM
32 | CCc1c(CC(N)=O)c2cc(OCCCS(=O)(=O)O)ccc2n1Cc1ccccc1 | >10 µM | – | –
33 | NC(=O)Cc1c(Br)n(Cc2ccccc2)c2ccc(OCCCP(=O)(O)O)cc12 [listing 1 of 3 here] | >10 µM | – | 0.033 µM
34 | CCc1c(CC(N)=O)c2cc(OCCCP(=O)(O)O)c(C)cc2n1Cc1ccccc1 | – | 0.202 µM | 0.015 µM
35 | Cc1c(CC(N)=O)c2cc(OCCCP(=O)(O)O)ccc2n1Cc1ccccc1 | >10 µM | – | –
36 | Cc1c(CC(N)=O)c2c(O)cccc2n1Cc1ccccc1 | – | – | 8.28 µM
37 | Cc1c(CCC(N)=O)c2cc(OCCCC(=O)O)ccc2n1Cc1ccccc1 | – | – | 6.93 µM
38 | NC(=O)Cc1c(Br)n(Cc2ccccc2)c2cc(Cl)c(OCCCC(=O)O)cc12 | >10 µM | – | –
39 | Cc1c(CC(N)=O)c2cc(OCCC(=O)O)ccc2n1Cc1ccccc1 | >30 µM | 3.76 µM | 0.527 µM
40 | Cc1c(CC(N)=O)c2c(OCP(=O)(O)O)cccc2n1Cc1ccccc1 | >10 µM | – | –
41 | Cc1c(CC(N)=O)c2cc(NCCC(=O)O)ccc2n1Cc1ccccc1 | – | – | 3.37 µM
42 | Cc1c(CC(N)=O)c2cc(OCCCC(=O)O)ccc2n1Cc1ccccc1 | >30 µM | – | –
43 | Cc1c(CC(N)=O)c2c(OCC(=O)NN)cccc2n1Cc1ccccc1 | – | 1.95 µM | 0.422 µM
44 | Cc1c(CC(=O)NN)c2cc(OCCCC(=O)O)ccc2n1Cc1ccccc1 | >30 µM | 2.17 µM | 1.02 µM

Row | SMILES | ED50 (Cavia porcellus) | Kb [1] | IC50 [2]
45 | CCCc1c(CC(N)=O)c2cc(OCCCP(=O)(O)O)ccc2n1Cc1ccccc1 | – | – | 6.13 µM
46 | Cc1c(CC(=O)NN)c2cc(OCCCP(=O)([O-])[O-])ccc2n1Cc1ccccc1.[Na+].[Na+] | >10 µM | 1.07 µM | 0.462 µM
47 | NC(=O)Cc1c(C2CC2)n(Cc2ccccc2)c2ccc(OCCCP(=O)(O)O)cc12 | – | 0.9 µM | 0.074 µM
48 | NC(=O)Cc1cn(Cc2ccccc2)c2cccc(OCC(=O)O)c12 | – | – | 0.321 µM
49 | COC(=O)COc1cccc2c1c(CC(N)=O)c(C)n2Cc1ccccc1 | – | – | 1.38 µM
50 | Cc1c(CC(N)=O)c2c(OCC(=O)O)cccc2n1Cc1cccc(Cl)c1 | – | 0.19 µM | 0.052 µM
51 | Cc1c(CC(N)=O)c2cc(OCCCC3=NNNN3)ccc2n1Cc1ccccc1 | – | – | 2.45 µM
52 | CSc1c(CC(N)=O)c2cc(OCCCC(N)=O)ccc2n1Cc1ccccc1 | – | – | 0.093 µM
53 | Cc1c(CC(N)=O)c2cc(OCc3ccccc3C(=O)O)ccc2n1Cc1ccccc1 | >10 µM | 0.72 µM | 0.147 µM
54 | CCc1c(CC(N)=O)c2cc(OCCCP(=O)(O)O)ccc2n1Cc1cccc(Cl)c1 | – | 0.24 µM | –
55 | NC(=O)Cc1c(C2CC2)n(Cc2ccccc2)c2ccc(OCCCC(=O)O)cc12 | – | – | 0.044 µM
56 | NC(=O)Cc1cn(Cc2ccccc2)c2ccc(OCCCP(=O)(O)O)cc12 | – | – | 0.203 µM
57 | Cc1c(CC(N)=O)c2c(O)cccc2n1Cc1cccc(Cl)c1 | – | – | 5.88 µM
58 | CCc1c(C(N)=O)c2c(OCC(=O)O)cccc2n1Cc1cccc(Cl)c1 | – | – | 16.8 µM
59 | NC(=O)Cc1c(Br)n(Cc2ccccc2)c2ccc(OCCCP(=O)(O)O)cc12 [listing 2 of 3 here] | – | 0.44 µM and 1.55 µM | –
60 | CCc1c(CC(N)=O)c2cc(OCCCP(=O)(O)O)c(C(C)C)cc2n1Cc1ccccc1 | – | 0.698 µM | 0.04 µM
61 | CCc1c(CC(N)=O)c2cc(SCCCP(=O)(O)O)ccc2n1Cc1ccccc1 | – | – | 0.058 µM
62 | CCc1c(CC(N)=O)c2cc(OCCCC(=O)O)ccc2n1Cc1ccccc1 | >10 µM | – | –
63 | Cc1c(CC(N)=O)c2ccc(OCCCC(N)=O)cc2n1Cc1ccccc1 | – | – | 5.83 µM
64 | Cc1cc(OCCCC(=O)O)cc2c(CC(N)=O)c(C)n(Cc3ccccc3)c12 | – | – | 0.075 µM
65 | NC(=O)Cc1c(Br)n(Cc2ccccc2)c2ccc(OCCCP(=O)(O)O)cc12 [listing 3 of 3 here] | – | – | 0.165 µM
